Laboratory results: PubChem BioAssay AID1963868 (Molecular Pharmacology Branch, DTP, NCI, 2024)

Test system: KRAS PDC tumor spheroids (HUVEC+MSC), viability
Test: Anticancer human tumor 254851-301-R-J1-PDC patient-derived colon carcinoma cell line growth inhibition [KRAS2]
Conditions: for viability, T/C: stronger effect = lower value
How it was run: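 Combination screen of spheroid viability in tumor-cell co-cultures with endothelial (HUVEC) and mesenchymal stem cell stroma. Each agent was tested in half-log dilutions, topping at clinical Cmax or at 10 microM without a known Cmax.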

[1] = curve of first compound, second compound 0.1 µM
[2] = curve of first compound, second compound 0.316 µM
[3] = curve of first compound, second compound 1 µM
[4] = curve of first compound, second compound 3.16 µM
[5] = curve of first compound, second compound 10 µM
[6] = second compound 0.1 µM, first compound 0.0316 µM
[7] = second compound 0.1 µM, first compound 0.1 µM
[8] = second compound 0.1 µM, first compound 0.316 µM
[9] = second compound 0.1 µM, first compound 1 µM
[10] = second compound 0.1 µM, first compound 3.16 µM
[11] = second compound 0.316 µM, first compound 0.0316 µM
[12] = second compound 0.316 µM, first compound 0.1 µM
[13] = second compound 0.316 µM, first compound 0.316 µM
[14] = second compound 0.316 µM, first compound 1 µM
[15] = second compound 0.316 µM, first compound 3.16 µM
[16] = second compound 1 µM, first compound 0.0316 µM
[17] = second compound 1 µM, first compound 0.1 µM
[18] = second compound 1 µM, first compound 0.316 µM
[19] = second compound 1 µM, first compound 1 µM
[20] = second compound 1 µM, first compound 3.16 µM
[21] = second compound 3.16 µM, first compound 0.0316 µM
[22] = second compound 3.16 µM, first compound 0.1 µM
[23] = second compound 3.16 µM, first compound 0.316 µM
[24] = second compound 3.16 µM, first compound 1 µM
[25] = second compound 3.16 µM, first compound 3.16 µM
[26] = second compound 10 µM, first compound 0.0316 µM
[27] = second compound 10 µM, first compound 0.1 µM
[28] = second compound 10 µM, first compound 0.316 µM
[29] = second compound 10 µM, first compound 1 µM
[30] = second compound 10 µM, first compound 3.16 µM
[31] = second compound 0.1 µM, first compound 0.01 µM
[32] = second compound 0.316 µM, first compound 0.01 µM
[33] = second compound 1 µM, first compound 0.01 µM
[34] = second compound 3.16 µM, first compound 0.01 µM
[35] = second compound 10 µM, first compound 0.01 µM
[36] = second compound 0.1 µM, first compound 0.000316 µM
[37] = second compound 0.1 µM, first compound 0.001 µM
[38] = second compound 0.1 µM, first compound 0.00316 µM
[39] = second compound 0.316 µM, first compound 0.000316 µM
[40] = second compound 0.316 µM, first compound 0.001 µM
[41] = second compound 0.316 µM, first compound 0.00316 µM
[42] = second compound 1 µM, first compound 0.000316 µM
[43] = second compound 1 µM, first compound 0.001 µM
[44] = second compound 1 µM, first compound 0.00316 µM
[45] = second compound 3.16 µM, first compound 0.000316 µM
[46] = second compound 3.16 µM, first compound 0.001 µM
[47] = second compound 3.16 µM, first compound 0.00316 µM
[48] = second compound 10 µM, first compound 0.000316 µM
[49] = second compound 10 µM, first compound 0.001 µM
[50] = second compound 10 µM, first compound 0.00316 µM
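Further: spheroids exposed to compounds for seven days before readout.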
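Wherever viability, T/C is given: 100% = DMSO vehicle control luminescence of the spheroids.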

`CCNC(=O)CC1N=C(c2ccc(Cl)cc2)c2cc(OC)ccc2-n2c(C)nnc21` (configuration not stated) + COc1cc2nc(C)nc(NC(C)c3cc(N)cc(C(F)(F)F)c3)c2cc1OC1CCOC1 was tested. Which IC50 [1] did it give?
Its IC50 is 3470 nM.

What about the IC50 [2] of the same compound?
Its IC50 is 2530 nM.

What about the IC50 [3] of the same compound?
The IC50 was 1940 nM.

And the IC50 [4]?
Its IC50 is 668 nM.

And the IC50 [5]?
The IC50 was 712 nM.

What about the viability, T/C [6] of the same compound?
Its viability, T/C is 115%.

And the viability, T/C [7]?
The viability, T/C was 123%.

What about the viability, T/C [8] of the same compound?
The viability, T/C was 97.6%.

And the viability, T/C [9]?
Its viability, T/C is 84.8%.

And the viability, T/C [10]?
The viability, T/C was 45%.

What about the viability, T/C (second compound 0.1 µM, first compound 10 µM) of the same compound?
Its viability, T/C is 43%.

What about the viability, T/C [11] of the same compound?
The viability, T/C was 113%.

What about the viability, T/C [12] of the same compound?
Its viability, T/C is 122%.

What about the viability, T/C [13] of the same compound?
The viability, T/C was 109%.

What about the viability, T/C [14] of the same compound?
The viability, T/C was 65.8%.

What about the viability, T/C [15] of the same compound?
The viability, T/C was 45.5%.

What about the viability, T/C (second compound 0.316 µM, first compound 10 µM) of the same compound?
Its viability, T/C is 45.5%.

And the viability, T/C [16]?
Its viability, T/C is 103%.

And the viability, T/C [17]?
The viability, T/C was 111%.

What about the viability, T/C [18] of the same compound?
Its viability, T/C is 98.6%.

And the viability, T/C [19]?
The viability, T/C was 65.9%.

And the viability, T/C [20]?
The viability, T/C was 39.2%.

What about the viability, T/C (second compound 1 µM, first compound 10 µM) of the same compound?
Its viability, T/C is 17.6%.

What about the viability, T/C [21] of the same compound?
The viability, T/C was 73%.

What about the viability, T/C [22] of the same compound?
The viability, T/C was 107%.

And the viability, T/C [23]?
Its viability, T/C is 76%.

What about the viability, T/C [24] of the same compound?
Its viability, T/C is 36.2%.

And the viability, T/C [25]?
The viability, T/C was 22.4%.

What about the viability, T/C (second compound 3.16 µM, first compound 10 µM) of the same compound?
The viability, T/C was 26.4%.

And the viability, T/C [26]?
Its viability, T/C is 79.9%.

And the viability, T/C [27]?
The viability, T/C was 81.6%.

What about the viability, T/C [28] of the same compound?
The viability, T/C was 74.8%.

And the viability, T/C [29]?
Its viability, T/C is 39.2%.

What about the viability, T/C [30] of the same compound?
The viability, T/C was 22.9%.

What about the viability, T/C (second compound 10 µM, first compound 10 µM) of the same compound?
The viability, T/C was 15.7%.

What does the source list for `CC(=O)OC12COC1CC(O)C1(C)C(=O)C(O)C3=C(C)C(OC(=O)C(O)C(NC(=O)OC(C)(C)C)c4ccccc4)CC(O)(C(OC(=O)c4ccccc4)C21)C3(C)C` (configuration not stated) + CC1OCC2(CCN(c3cnc(Sc4ccnc(N)c4Cl)c(N)n3)CC2)C1N?
IC50 [1]: 154 nM; IC50 [2]: 175 nM; IC50 [3]: 168 nM; IC50 [4]: 80.1 nM; IC50 [5]: 58.4 nM; viability, T/C [31]: 99.2%; viability, T/C [6]: 89.1%; viability, T/C [7]: 59.8%; viability, T/C [8]: 33.6%; viability, T/C [9]: 24.1%; viability, T/C [10]: 24%; viability, T/C [32]: 93.3%; viability, T/C [11]: 85.8%; viability, T/C [12]: 61.6%; viability, T/C [13]: 38.1%; viability, T/C [14]: 23.2%; viability, T/C [15]: 22.6%; viability, T/C [33]: 80.7%; viability, T/C [16]: 89.6%; viability, T/C [17]: 60.5%; viability, T/C [18]: 36.1%; viability, T/C [19]: 26.6%; viability, T/C [20]: 22.9%; viability, T/C [34]: 73.3%; viability, T/C [21]: 72.3%; viability, T/C [22]: 44.5%; viability, T/C [23]: 22.3%; viability, T/C [24]: 17.1%; viability, T/C [25]: 18.6%; viability, T/C [35]: 64.2%; viability, T/C [26]: 66.4%; viability, T/C [27]: 36.7%; viability, T/C [28]: 21.2%; viability, T/C [29]: 16.1%; viability, T/C [30]: 16.1%

Which IC50 [1] does the source give for `Cn1ncnc1[C@H]1c2n[nH]c(=O)c3cc(F)cc(c23)N[C@@H]1c1ccc(F)cc1` + C=CC(=O)N1CCN(c2nc(=O)n(-c3c(C)ccnc3C(C)C)c3nc(-c4c(O)cccc4F)c(F)cc23)C(C)C1 here?
The IC50 was > 100 nM.

What about the IC50 [2] of the same compound?
The IC50 was > 100 nM.

And the IC50 [3]?
The IC50 was > 100 nM.

What about the IC50 [4] of the same compound?
Its IC50 is > 100 nM.

What about the IC50 [5] of the same compound?
Its IC50 is > 100 nM.

And the viability, T/C [36]?
Its viability, T/C is 101%.

And the viability, T/C [37]?
The viability, T/C was 99.8%.

What about the viability, T/C [38] of the same compound?
The viability, T/C was 99.2%.

What about the viability, T/C [31] of the same compound?
The viability, T/C was 99.3%.

What about the viability, T/C [6] of the same compound?
Its viability, T/C is 106%.

And the viability, T/C [7]?
The viability, T/C was 98.8%.

And the viability, T/C [39]?
The viability, T/C was 97.5%.

And the viability, T/C [40]?
Its viability, T/C is 97.9%.

And the viability, T/C [41]?
Its viability, T/C is 96%.

And the viability, T/C [32]?
The viability, T/C was 94.5%.

What about the viability, T/C [11] of the same compound?
The viability, T/C was 88.5%.

What about the viability, T/C [12] of the same compound?
Its viability, T/C is 92.4%.

What about the viability, T/C [42] of the same compound?
Its viability, T/C is 90%.

And the viability, T/C [43]?
The viability, T/C was 93.9%.

What about the viability, T/C [44] of the same compound?
Its viability, T/C is 98%.

What about the viability, T/C [33] of the same compound?
Its viability, T/C is 94.7%.

What about the viability, T/C [16] of the same compound?
Its viability, T/C is 97.7%.

What about the viability, T/C [17] of the same compound?
Its viability, T/C is 86.5%.

What about the viability, T/C [45] of the same compound?
Its viability, T/C is 97%.

What about the viability, T/C [46] of the same compound?
The viability, T/C was 103%.

What about the viability, T/C [47] of the same compound?
Its viability, T/C is 94%.

What about the viability, T/C [34] of the same compound?
Its viability, T/C is 94.3%.

What about the viability, T/C [21] of the same compound?
Its viability, T/C is 96.3%.

And the viability, T/C [22]?
Its viability, T/C is 90.4%.

And the viability, T/C [48]?
Its viability, T/C is 108%.

And the viability, T/C [49]?
The viability, T/C was 99.4%.

What about the viability, T/C [50] of the same compound?
The viability, T/C was 102%.

And the viability, T/C [35]?
Its viability, T/C is 91.7%.

And the viability, T/C [26]?
The viability, T/C was 87.4%.

What about the viability, T/C [27] of the same compound?
Its viability, T/C is 96.8%.

Which results are given for `CC1(C)CCC(CN2CCN(c3ccc(C(=O)NS(=O)(=O)c4ccc(NCC5CCOCC5)c([N+](=O)[O-])c4)c(Oc4cnc5[nH]ccc5c4)c3)CC2)=C(c2ccc(Cl)cc2)C1`?
viability, T/C (compound 0.0316 µM): 103% [middle of 5 runs]; viability, T/C (compound 0.1 µM): 102% [middle of 5 runs]; viability, T/C (compound 0.316 µM): 101% [middle of 5 runs]; viability, T/C (compound 1 µM): 102% [middle of 5 runs]; viability, T/C (compound 3.16 µM): 96.3% [middle of 5 runs]; viability, T/C (compound 10 µM): 92.8% [middle of 5 runs]; IC50 (curve of compound): > 10000 nM

Which results are given for `CC(C)n1nc(-c2ccc3oc(N)nc3c2)c2c(N)ncnc21` + CNCc1ccccc1-c1csc(C(C)Nc2nc(C)nc3cc(OC)c(OC)cc23)c1?
IC50 [1]: 18.6 nM; IC50 [2]: 19.7 nM; IC50 [3]: 17.4 nM; IC50 [4]: 6.04 nM; IC50 [5]: < 0.316 nM; viability, T/C [36]: 110%; viability, T/C [37]: 98.6%; viability, T/C [38]: 89.2%; viability, T/C [31]: 64.8%; viability, T/C [6]: 36.8%; viability, T/C [7]: 23.3%; viability, T/C [39]: 96.1%; viability, T/C [40]: 105%; viability, T/C [41]: 82%; viability, T/C [32]: 73.4%; viability, T/C [11]: 33.8%; viability, T/C [12]: 23.4%; viability, T/C [42]: 88.6%; viability, T/C [43]: 95%; viability, T/C [44]: 80.4%; viability, T/C [33]: 68%; viability, T/C [16]: 31.4%; viability, T/C [17]: 19.5%; viability, T/C [45]: 81.1%; viability, T/C [46]: 76.7%; viability, T/C [47]: 53.8%; viability, T/C [34]: 45.9%; viability, T/C [21]: 25%; viability, T/C [22]: 9.11%; viability, T/C [48]: 0.21%; viability, T/C [49]: 0.19%; viability, T/C [50]: 0.17%; viability, T/C [35]: 0.14%; viability, T/C [26]: 0.14%; viability, T/C [27]: 0.19%
